Laboratory results taken from PMC8041284, “Tunable Methacrylamides for Covalent Ligand Directed Release Chemistry” (Journal of the American Chemical Society, 2021).

Each molecule was assayed against BTK (Homo sapiens, UniProt Q06187) (assay: biochemical). Details: read-out: BTK inhibition (%).
Chain of BTK (Q06187 402-655 limits assumed): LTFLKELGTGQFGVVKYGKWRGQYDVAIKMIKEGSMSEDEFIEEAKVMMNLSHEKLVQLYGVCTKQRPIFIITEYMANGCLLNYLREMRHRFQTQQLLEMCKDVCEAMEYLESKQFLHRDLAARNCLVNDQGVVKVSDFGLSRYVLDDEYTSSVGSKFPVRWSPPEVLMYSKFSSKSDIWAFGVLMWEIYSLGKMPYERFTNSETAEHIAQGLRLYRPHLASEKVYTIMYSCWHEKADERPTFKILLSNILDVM
For `OC(c1ccccc1)(c1ccccc1)C1CCNCC1` [PCM-0085781], the inhibition at 10 µM was -14%.

Same assay, conditions: read-out: BTK inhibition (%), 0.75 uM BTK, […] probe 3l, 15 min preincubation
In the case of `CS(=O)(=O)OCCCCOS(C)(=O)=O` [PCM-0085767], the inhibition at 10 µM is reported as -1.4%.
Molecule `NNC(=O)c1ccncc1` [PCM-0085769] has an inhibition at 10 µM of 2.3%.
Molecule `Cc1c(-c2ccccc2)oc2c(C(=O)OCCN3CCCCC3)cccc2c1=O` [PCM-0085770] has an inhibition at 10 µM of 12.8%.
Work on `CCCCOc1ccc(CC(=O)NO)cc1` [PCM-0085771] yielded an inhibition at 10 µM of 6.9%.
`Cc1ncc([N+](=O)[O-])n1CC(O)CCl` (stereo not drawn) [PCM-0085772] showed an inhibition at 10 µM of -3.9%.
`NCc1ccc(S(N)(=O)=O)cc1` [PCM-0085773] was tested, and the inhibition at 10 µM was -28.8%.
`CCCSc1ccc2nc(NC(=O)OC)[nH]c2c1` [PCM-0085774] gave an inhibition at 10 µM of -10.1%.
`Nc1ccc(S(=O)(=O)Nc2nccs2)cc1` [PCM-0085785] gave an inhibition at 10 µM of 14.8%.
Molecule `O=c1[nH]c(=O)n([C@H]2C[C@H](O)[C@@H](CO)O2)cc1I` [PCM-0085786] has an inhibition at 10 µM of -27.2%.
For `C#C[C@]1(O)CC[C@H]2[C@@H]3CCC4=CC(=O)CC[C@@H]4[C@H]3CC[C@@]21C` [PCM-0085792], the inhibition at 10 µM was 3.1%.
`CCN(CCCc1ccccc1)CCCc1ccccc1` [PCM-0085793] showed an inhibition at 10 µM of -8.6%.
`NC(N)=NC(N)=NCCc1ccccc1` [PCM-0085798] showed an inhibition at 10 µM of 4.1%.
With `CS(=O)(=O)c1ccc([C@@H](O)[C@@H](CO)NC(=O)C(Cl)Cl)cc1` [PCM-0085804] the inhibition at 10 µM was -8.6%.
In the case of `O=C(NCCO[N+](=O)[O-])c1cccnc1` [PCM-0085806], the inhibition at 10 µM is reported as -5.4%.
`Cc1cc(=O)n(-c2ccccc2)n1C` [PCM-0085809] was tested, and the inhibition at 10 µM was 13.8%.
`COc1ccccc1OCC(O)COC(N)=O` (stereo not drawn) [PCM-0085814] was tested, and the inhibition at 10 µM was 14.8%.
`CCCCOc1ccc(C(=O)CCN2CCCCC2)cc1` [PCM-0085815] gave an inhibition at 10 µM of -10.1%.
Work on `C[C@H]1[C@H](NC(=O)/C(=N\OC(C)(C)C(=O)O)c2csc(N)n2)C(=O)N1S(=O)(=O)O` [PCM-0085816] yielded an inhibition at 10 µM of -15.6%.
With `CCC1=C[C@@H]2CN3CCc4c([nH]c5ccccc45)[C@@](C(=O)OC)(C2)[C@@H]13` [PCM-0085818] the inhibition at 10 µM was 8.6%.
With `Cn1c(=O)c2c(ncn2CC(O)CO)n(C)c1=O` (stereo not drawn) [PCM-0085824] the inhibition at 10 µM was 0.8%.
In the case of `O=C1CC[C@@]2(O)[C@H]3Cc4ccc(O)c5c4[C@@]2(CCN3CC2CC2)[C@H]1O5` [PCM-0085829], the inhibition at 10 µM is reported as -24.1%.
`CCc1nc(N)nc(N)c1-c1ccc(Cl)cc1` [PCM-0085830] showed an inhibition at 10 µM of -13.2%.
Molecule `C[C@]12C=CC(=O)C=C1CC[C@@H]1[C@@H]2[C@@H](O)C[C@@]2(C)[C@H]1CC[C@]2(O)C(=O)CO` [PCM-0085835] has an inhibition at 10 µM of -7%.
`C[C@H]1C[C@@H]2[C@H]([C@@H](O)C[C@@]3(C)[C@H]2CC[C@]3(O)C(=O)CO)[C@@]2(C)C=CC(=O)C=C12` [PCM-0085838] was tested, and the inhibition at 10 µM was 9%.
In the case of `Clc1ccc(C(Cn2ccnc2)OCc2ccsc2Cl)c(Cl)c1` (stereo not drawn) [PCM-0085844], the inhibition at 10 µM is reported as -41.2%.
`c1ccc2c(CC3=NCCN3)cccc2c1` [PCM-0085846] showed an inhibition at 10 µM of -13.2%.
Work on `Clc1ccccc1CN1CCc2sccc2C1` [PCM-0085848] yielded an inhibition at 10 µM of -2.6%.
Molecule `Clc1ccc(C(Cn2ccnc2)OCc2c(Cl)cccc2Cl)c(Cl)c1` (stereo not drawn) [PCM-0085849] has an inhibition at 10 µM of 38.9%.
With `CC(=O)OCC(=O)[C@@]1(O)[C@H](C)C[C@H]2[C@@H]3CCC4=CC(=O)C=C[C@]4(C)[C@@]3(F)[C@@H](O)C[C@@]21C` [PCM-0085852] the inhibition at 10 µM was 1.4%.
For `CC1CCc2cc(F)cc3c(=O)c(C(=O)O)cn1c23` (stereo not drawn) [PCM-0085858], the inhibition at 10 µM was -10.1%.
`COC(=O)Nc1nc2ccc(Sc3ccccc3)cc2[nH]1` [PCM-0085863] showed an inhibition at 10 µM of -7%.
Work on `OCCOCCN1CCN(C(c2ccccc2)c2ccc(Cl)cc2)CC1` (stereo not drawn) [PCM-0085866] yielded an inhibition at 10 µM of 4.1%.
In the case of `Cc1cccc(Nc2ccccc2C(=O)O)c1C` [PCM-0085867], the inhibition at 10 µM is reported as 17.2%.
For `CN(C)[C@@H]1C(=O)C(C(N)=O)=C(O)[C@@]2(O)C(=O)C3=C(O)c4c(O)cccc4[C@@](C)(O)[C@H]3C[C@@H]12` [PCM-0085873], the inhibition at 10 µM was 6.2%.
`Cc1ccc(C)c(OCCCC(C)(C)C(=O)O)c1` [PCM-0085876] showed an inhibition at 10 µM of -29.6%.
